Measured values as given in PubChem BioAssay AID250 (DTP/NCI, 2004).
Several values for one entry are separate records, joined by “and”; a condition that tells them apart may be missing. Identical values can stand only once. Inconclusive results and toxic doses are left out.

System: BDF1 mice, L1210 leukemia sc, survival T/C
Test: NCI In Vivo Anticancer Drug Screen. Data for tumor model L1210 Leukemia (subcutaneous) in B6D2F1 (BDF1) mice
Details: endpoint: median survival time, higher = longer survival
Experimental: The antitumor activity of compounds was measured in mice bearing transplantable tumors. Survival or tumor size were measured and the results are expressed as the measurement made in the treated group (T) divided by the measurement made in the vehicle treated control group (C). The tumor model used in this assay is L1210 Leukemia (subcutaneous) in B6D2F1 (BDF1) mice

[1] = dose: 14.0 mg/kg/injection, schedule: Q01DX Z (sc), vehicle: saline
[2] = dose: 23.0 mg/kg/injection, schedule: Q01DX Z (sc), vehicle: saline
[3] = dose: 39.0 mg/kg/injection, schedule: Q01DX Z (sc), vehicle: saline
[4] = dose: 65.0 mg/kg/injection, schedule: Q01DX Z (sc), vehicle: saline
[5] = dose: 108.0 mg/kg/injection, schedule: Q01DX Z (sc), vehicle: saline

Compound: CCCCCCOP(=O)(N1CC1)N1CC1
- T/C (dose: 0.65 mg/kg/injection, schedule: Q01DX Z (sc), vehicle: saline): 100 % of control and 110 % of control
- T/C (dose: 1.08 mg/kg/injection, schedule: Q01DX Z (sc), vehicle: saline): 104 % of control and 110 % of control (2×)
- T/C (dose: 23.0 mg/kg/injection, schedule: Q01DX001 (sc), vehicle: saline): 150 % of control
- T/C (dose: 23.0 mg/kg/injection, schedule: Q## X Z (sc), vehicle: saline): 170 % of control
- T/C (dose: 39.0 mg/kg/injection, schedule: Q01DX001 (sc), vehicle: saline): 150 % of control
- T/C (dose: 39.0 mg/kg/injection, schedule: Q## X Z (sc), vehicle: saline): 220 % of control
- T/C (dose: 65.0 mg/kg/injection, schedule: Q01DX001 (sc), vehicle: saline): 170 % of control
- T/C (dose: 65.0 mg/kg/injection, schedule: Q## X Z (sc), vehicle: saline): 160 % of control
- T/C (dose: 108.0 mg/kg/injection, schedule: Q01DX001 (sc), vehicle: saline): 160 % of control
- T/C (dose: 108.0 mg/kg/injection, schedule: Q## X Z (sc), vehicle: saline): 150 % of control
- T/C (dose: 180.0 mg/kg/injection, schedule: Q01DX001 (sc), vehicle: saline): 150 % of control

Compound: CN(N=O)C(=O)Nc1c[nH]c(=O)[nH]c1=O
- T/C [1]: 90 % of control
- T/C [2]: 100 % of control
- T/C [3]: 105 % of control
- T/C [4]: 95 % of control
- T/C [5]: 100 % of control

Compound: N=[N+]=CC(=O)CCC(NC(=O)C(CCC(=O)C=[N+]=N)NC(=O)CCC(N)C(=O)O)C(=O)O (configuration not stated)
- T/C (dose: 0.1 mg/kg/injection, schedule: Q01DX009 (ip), vehicle: water): 94 % of control
- T/C (dose: 0.1 mg/kg/injection, schedule: Q01DX009 (sc), vehicle: water): 95 % of control and 106 % of control
- T/C (dose: 0.2 mg/kg/injection, schedule: Q01DX009 (ip), vehicle: water): 94 % of control
- T/C (dose: 0.2 mg/kg/injection, schedule: Q01DX009 (sc), vehicle: water): 102 % of control
- T/C (dose: 0.4 mg/kg/injection, schedule: Q01DX009 (ip), vehicle: water): 95 % of control
- T/C (dose: 0.4 mg/kg/injection, schedule: Q01DX009 (sc), vehicle: water): 103 % of control
- T/C (dose: 0.8 mg/kg/injection, schedule: Q01DX009 (ip), vehicle: water): 95 % of control
- T/C (dose: 0.8 mg/kg/injection, schedule: Q01DX009 (sc), vehicle: water): 101 % of control and 102 % of control
- T/C (dose: 1.6 mg/kg/injection, schedule: Q01DX009 (ip), vehicle: water): 91 % of control
- T/C (dose: 1.6 mg/kg/injection, schedule: Q01DX009 (sc), vehicle: water): 103 % of control and 106 % of control

Compound: Nc1ccc(S(=O)(=O)Nc2ccc(Nc3c4ccccc4nc4ccccc34)cc2)cc1
- T/C (dose: 1.5 mg/kg/injection, schedule: Q01DX009 (ip), vehicle: saline with Tween-80): 100 % of control
- T/C (dose: 3.0 mg/kg/injection, schedule: Q01DX009 (ip), vehicle: saline with Tween-80): 112 % of control
- T/C (dose: 6.0 mg/kg/injection, schedule: Q01DX009 (ip), vehicle: saline with Tween-80): 112 % of control
- T/C (dose: 12.0 mg/kg/injection, schedule: Q01DX009 (ip), vehicle: saline with Tween-80): 112 % of control

Compound: O=C(Nc1ccc(C(=O)Nc2ccc(C3=NCCN3)cc2)cc1)Nc1ccc(C2=NCCN2)cc1
- T/C (dose: 39.0 mg/kg/injection, schedule: Q01DX Z (sc), vehicle: methylcellulose (MC)): 95 % of control
- T/C (dose: 65.0 mg/kg/injection, schedule: Q01DX Z (sc), vehicle: methylcellulose (MC)): 95 % of control
- T/C (dose: 108.0 mg/kg/injection, schedule: Q01DX Z (sc), vehicle: methylcellulose (MC)): 100 % of control
- T/C (dose: 180.0 mg/kg/injection, schedule: Q01DX Z (sc), vehicle: methylcellulose (MC)): 110 % of control

Compound: N[C@@H](Cc1ccc(N(CCCl)CCCl)cc1)C(=O)O
- T/C (dose: 0.65 mg/kg/injection, schedule: Q01DX Z (sc), vehicle: water): 100 % of control
- T/C (dose: 1.09 mg/kg/injection, schedule: Q01DX Z (sc), vehicle: water): 100 % of control
- T/C (dose: 1.81 mg/kg/injection, schedule: Q01DX Z (sc), vehicle: water): 95 % of control
- T/C (dose: 3.02 mg/kg/injection, schedule: Q01DX Z (sc), vehicle: water): 100 % of control
- T/C (dose: 5.04 mg/kg/injection, schedule: Q01DX Z (sc), vehicle: water): 104 % of control
- T/C (dose: 8.4 mg/kg/injection, schedule: Q01DX Z (sc), vehicle: water): 100 % of control
- T/C [1]: 114 % of control
- T/C (dose: 14.0 mg/kg/injection, schedule: Q01DX Z (sc), vehicle: water): 109 % of control
- T/C [2]: 123 % of control
- T/C (dose: 23.3 mg/kg/injection, schedule: Q01DX Z (sc), vehicle: water): 109 % of control
- T/C (dose: 38.9 mg/kg/injection, schedule: Q01DX Z (sc), vehicle: water): 118 % of control
- T/C [3]: 104 % of control
- T/C [4]: 104 % of control

Compound: CN=C(NC)c1ccc(NC(=O)Nc2ccc(NC(=O)Nc3ccc(C(=NC)NC)cc3)cc2)cc1
- T/C (dose: 3.0 mg/kg/injection, schedule: Q01DX Z (sc), vehicle: saline): 100 % of control
- T/C (dose: 5.0 mg/kg/injection, schedule: Q01DX Z (sc), vehicle: saline): 105 % of control
- T/C (dose: 8.4 mg/kg/injection, schedule: Q01DX Z (sc), vehicle: saline): 100 % of control
- T/C [1]: 105 % of control
- T/C [3]: 115 % of control
- T/C [4]: 110 % of control

Compound: O=C(Nc1ccc(NC(=O)Nc2cccc(C3=NCCN3)c2)cc1)Nc1cccc(C2=NCCN2)c1
- T/C [2]: 100 % of control
- T/C [3]: 110 % of control
- T/C [4]: 100 % of control
- T/C [5]: 95 % of control
- T/C (dose: 180.0 mg/kg/injection, schedule: Q01DX Z (sc), vehicle: saline): 100 % of control
- T/C (dose: 300.0 mg/kg/injection, schedule: Q01DX Z (sc), vehicle: saline): 100 % of control

Compound: Cc1cccc(C)c1NC(=O)N(CCCl)N=O
- T/C (dose: 8.4 mg/kg/injection, schedule: Q01DX Z (sc), vehicle: carboxymethylcellulose (CMC)): 106 % of control
- T/C (dose: 23.0 mg/kg/injection, schedule: Q01DX Z (sc), vehicle: carboxymethylcellulose (CMC)): 181 % of control
- T/C (dose: 39.0 mg/kg/injection, schedule: Q01DX Z (sc), vehicle: carboxymethylcellulose (CMC)): 287 % of control
- T/C (dose: 65.0 mg/kg/injection, schedule: Q01DX Z (sc), vehicle: carboxymethylcellulose (CMC)): 337 % of control
- T/C (dose: 108.0 mg/kg/injection, schedule: Q01DX Z (sc), vehicle: carboxymethylcellulose (CMC)): 162 % of control

Compound: Cc1c2ccncc2c(C)c2c1[nH]c1ccccc12
- T/C (dose: 5.0 mg/kg/injection, schedule: Q03HX008 (ip), vehicle: steriod suspending solution): 111 % of control
- T/C (dose: 5.0 mg/kg/injection, schedule: Q03HX008 (sc), vehicle: steriod suspending solution): 100 % of control
- T/C (dose: 10.0 mg/kg/injection, schedule: Q03HX008 (ip), vehicle: steriod suspending solution): 111 % of control
- T/C (dose: 10.0 mg/kg/injection, schedule: Q03HX008 (sc), vehicle: steriod suspending solution): 111 % of control
- T/C (dose: 20.0 mg/kg/injection, schedule: Q03HX008 (sc), vehicle: steriod suspending solution): 111 % of control
- T/C (dose: 40.0 mg/kg/injection, schedule: Q03HX008 (ip), vehicle: steriod suspending solution): 150 % of control

Compound: CC(=O)OCC(=O)[C@@]1(O)CC[C@H]2[C@@H]3C[C@H](F)C4=CC(=O)CC[C@]4(C)[C@H]3[C@@H](O)C[C@@]21C
- T/C (dose: 8.4 mg/kg/injection, schedule: Q01DX Z (sc), vehicle: steriod suspending solution): 100 % of control
- T/C (dose: 14.0 mg/kg/injection, schedule: Q01DX Z (sc), vehicle: steriod suspending solution): 100 % of control
- T/C (dose: 23.0 mg/kg/injection, schedule: Q01DX Z (sc), vehicle: steriod suspending solution): 111 % of control
- T/C (dose: 39.0 mg/kg/injection, schedule: Q01DX Z (sc), vehicle: steriod suspending solution): 155 % of control
- T/C (dose: 65.0 mg/kg/injection, schedule: Q01DX Z (sc), vehicle: steriod suspending solution): 155 % of control
- T/C (dose: 108.0 mg/kg/injection, schedule: Q01DX Z (sc), vehicle: steriod suspending solution): 150 % of control
- T/C (dose: 180.0 mg/kg/injection, schedule: Q01DX Z (sc), vehicle: steriod suspending solution): 161 % of control
